Reference: US20050261171A1, “Combination cancer therapy” (Pharmacyclics, Inc., priority 2001, published 2005)
Like-named read-outs stand apart in the source and are kept apart here.

Columns and labels:
[1] = test system: murine Lewis lung carcinoma cell line (LLC1); assay: BCNU and MGd, tumor regrowth delay in subcutaneous Lewis lung carcinoma model; type: in vivo, Female C57BL mice; conditions: control group 11.45 days
[2] = test system: murine Lewis lung carcinoma cell line (LLC1); type: in vivo, Female C57BL mice; conditions: control group 12.11 days
[3] = test system: murine Lewis lung carcinoma cell line (LLC1); assay: Taxol and MGd, tumor regrowth delay in subcutaneous Lewis lung carcinoma model; type: in vivo, Female C57BL mice; conditions: control group 11.40 days
murine Lewis lung cancer = assay: Carboplatin and MGd, murine Lewis lung cancer in C57 mice; type: in vivo; conditions: Group #2: 20 μmol/kg MGd on day 7 post tumor inoculation; control group 12.14 days

Q: With `O=NN(CCCl)C(=O)NCCCl` [BCNU, carmustine, reference compound] as the compound, how does the median survival ([1]; Group #3: 15 mg/kg BCNU ip on days 10, 12 and 14) read?
A: 10.46 days

Q: bleomycin [reference compound] was tested. Which median survival ([2]; Group #3: 10 units/kg bleomycin iv thrice at three day intervals after tumor established) did it give?
A: 14.73 days

Q: `CC(=O)O[C@H]1C(=O)[C@@]2(C)[C@H]([C@H](OC(=O)c3ccccc3)[C@]3(O)C[C@H](OC(=O)[C@H](O)[C@@H](NC(=O)c4ccccc4)c4ccccc4)C(C)=C1C3(C)C)[C@]1(OC(C)=O)CO[C@@H]1C[C@@H]2O` [Taxol, paclitaxel, reference compound] was tested. Which median survival ([3]; Group #3: 24 μmol/kg of Taxol iv on days 7, 9, 11 and 13) did it give?
A: 11.55 days

Q: Which results are given for Motexafin Gadolinium [MGd]?
A: median survival ([3]; Group #2: 20 μmol/kg MGd iv on days 7, 9, 11 and 13): 12.90 days; median survival ([1]; Group #2: 20 μmol/kg MGd iv on days 10, 12 and 14): 10.04 days; median survival ([2]; Group #2: 20 μmol/kg MGd iv thrice at three day intervals after tumor established): 13.07 days; median survival (murine Lewis lung cancer): 12.42 days
